Laboratory results from patent US20250091995A1, “STABLE CRYSTAL OF 4-OXOQUINOLINE COMPOUND” (Japan Tobacco Inc., priority 2004, published 2025).
Converted amounts (≈) assume the structure as drawn.

What was measured:
Assay type in all cases: physicochemical
[1] = Thermal analysis (DSC): enthalpy and extrapolated onset temperature at endothermic peak; settings: for Endothermic peak Enthalpy / Endothermic peak Extrapolated onset temperature: crystal forms I and II 10° C./min, aluminum open pan, crystal form III 5° C./min, aluminum closed pan
Source text: This test aims at the measurement of the enthalpy and extrapolated onset temperature at an endothermic peak on the Differential Scanning Calorimetry (DSC) measurement curve. These values are among the indices of the stability of the above-mentioned crystal form I, crystal form II and crystal form III, and can be used as an index to specify the crystal form. Crystal form I and crystal form II were subjected to measurement using a Differential Scanning Calorimetry (DSC) measurement apparatus (DSC8240, manufactured by Rigaku Corporation), under atmosphere, measurement sample 5±1 mg, temperature rise rate: 10° C./min, aluminum open pan, and alumina oxide as a reference. The enthalpy and extrapolated onset temperature at an endothermic peak on the obtained DSC curve were determined. Crystal form III was subjected to measurement using a DSC measurement apparatus (DSC8240, manufactured by Rigaku Corporation), under atmosphere, measurement sample 5.0+0.5 mg, temperature rise rate: 5° C./min, aluminum closed pan, and alumina oxide as a reference. The enthalpy and extrapolated onset temperature at an endothermic peak on the obtained DSC curve were determined.

[2] = Stability test under preservation conditions (appearance, HPLC purity, XRD, DSC); settings: for Stability under various preservation conditions (overall evaluation): all preservation conditions; for Purity: HPLC
Protocol: A sample was fixed to an aluminum cell, and the measurement was performed using an X-ray powder diffractometer (RINT 2000/PC Ultima^+, manufactured by Rigaku Corporation, X-ray source: Cu-Kα1 ray, tube voltage: 40 kV, tube electric current: […], scan speed: 5° per min, step width: 0.02°, diffraction angle: 5-40°), based on which the diffraction patterns were obtained. Crystal form I and crystal form II were subjected to measurement using a Differential Scanning Calorimetry (DSC) measurement apparatus (DSC8240, manufactured by Rigaku Corporation), under atmosphere, measurement sample 5±1 mg, temperature rise rate: 10° C./min, aluminum open pan, and alumina oxide as a reference. The enthalpy and extrapolated onset temperature at an endothermic peak on the obtained DSC curve were determined. Crystal form III was subjected to measurement using a DSC measurement apparatus (DSC8240, manufactured by Rigaku Corporation), under atmosphere, measurement sample 5.0+0.5 mg, temperature rise rate: 5° C./min, aluminum closed pan, and alumina oxide as a reference. The enthalpy and extrapolated onset temperature at an endothermic peak on the obtained DSC curve were determined. Each sample (crystal form I and crystal form II, ca. 10 mg) was dissolved in acetonitrile to make an amount of 10 mL and used as a sample solution. This solution ([…]) was applied to high performance liquid chromatography (HPLC) under the following conditions. The peak area of each sample solution was measured by automatic integration, and the purity was determined by the following formula. The purity is shown in the Tables 5 and 6 below. • Detector: UV absorptiometer (wavelength: 259 nm) • Column: CAPCELL PAK MG (inner diameter […], length 15 cm, particle size 5 μm, manufactured by Shiseido Co., Ltd. • Column temperature: constant temperature around 40° C. • Mobile phase A: trifluoroacetic acid solution (1:1000) • Mobile phase B: solution of trifluoroacetic acid in acetonitrile (1:1000) • Gradient program: As shown in the following Table 2, the mixing ratio of mobile phase A and mobile phase B is changed to control concentration gradient. A sample (crystal form III, ca. 50 mg) was dissolved in a mixture (4:1) of mobile phase B and mobile phase A to make an amount of 50 mL, which was used as a sample solution. This solution (1 mL) was precisely measured and a mixture (4:1) of mobile phase B and mobile phase A was added to precisely make an amount of 100 mL, which was used as a standard solution. The sample solution and standard solution ([…]) was applied to high performance liquid chromatography (HPLC) under the following conditions. The peak area of each solution was measured by automatic integration, and the purity was determined by the following formula. The purity is shown in the Table 7 below. • Detector: UV absorptiometer (wavelength: 259 nm) • Column: Waters XTerra MC C18 ([…], manufactured by Waters) • Column temperature: constant temperature around 40° C. • Mobile phase A: phosphoric acid is added to dipotassium hydrogenphosphate solution (1>1149) to adjust pH to 7.0 • Mobile phase B: acetonitrile • Gradient program: As shown in the following Table 3, the mixing ratio of mobile phase A and mobile phase B is changed to control concentration gradient. A stability test of each sample was performed under the following preservation conditions. The results of crystal form I are shown in Table 5, the results of crystal form II are shown in Table 6, and the results of crystal form III are shown in Table 7.

[3] = Solubility test in various test solutions and pHs
Protocol: This test aims at measurement of solubility of the crystal in various test solutions and under various pHs. The solubility is one of the indices of the stability of the above-mentioned crystal form I, crystal form II and crystal form III and can be used also as a reference indices of absorbability of crystal form by living organisms. Each sample (crystal form I type I, crystal form II and crystal form III, ca. 10 mg) was placed in a 10 mL centrifuge tube together with the following test solution (5 mL) and shaken with a shaker (SR-1M; manufactured by […] Co., Ltd.) for 14 hours. After shaking, the mixture was centrifuged (3000 rpm, 20 min) and the supernatant was filtered through 0.2 μm pore size-13 mm diameter polytetrafluoroethylene disk filter (Millex-LG; manufactured by Millipore Corporation). The measurement was performed by high performance liquid chromatography (HPLC).

[4] = condition 2: 80° C., closed container, preserved for 3 days
[5] = condition 3: 80° C., open container, preserved for 3 days
[6] = condition 4: 60° C., closed container, preserved for 3 weeks
[7] = condition 5: 60° C., open container, preserved for 3 weeks
[8] = condition 6: 60° C./75% R.H., open container, preserved for 3 weeks
[9] = Japanese Pharmacopoeia 1st fluid, pH 1.2, shaken 14 hours
[10] = Japanese Pharmacopoeia 2nd fluid, pH 6.8, shaken 14 hours
[11] = McIlvaine buffer pH 2.2, shaken 14 hours
[12] = McIlvaine buffer pH 4, shaken 14 hours
[13] = McIlvaine buffer pH 5, shaken 14 hours
[14] = McIlvaine buffer pH 6.8, shaken 14 hours
[15] = McIlvaine buffer pH 8, shaken 14 hours
[16] = Purified water, shaken 14 hours
[17] = condition 6: 60° C./75% R.H., closed container, preserved for 3 weeks

## COc1cc2c(cc1Cc1cccc(Cl)c1F)c(=O)c(C(=O)O)cn2[C@H](CO)C(C)C [Crystal form I, 6-(3-chloro-2-fluorobenzyl)-1-[(S)-1-hydroxymethyl-2-methylpropyl]-7-methoxy-4-oxo-1,4-dihydroquinoline-3-carboxylic acid]
[1]
  Endothermic peak Enthalpy: 51.080 J/g
  Endothermic peak Extrapolated onset temperature: 150.3 °C
[2]
  Stability under various preservation conditions (overall evaluation): unstable
[2]; condition 1: Initial
  Purity: 99.1%
[2]; [4]
  Appearance: No change
  XRD (X-ray powder diffraction pattern vs initial): No change
  Purity: 99.1%
[2]; [5]
  Appearance: No change
  XRD (X-ray powder diffraction pattern vs initial): a part of the sample showed crystal transition to crystal form II
  Purity: 99.1%
[2]; [6]
  Appearance: No change
  XRD (X-ray powder diffraction pattern vs initial): No change
  Purity: 99.1%
[2]; [7]
  Appearance: No change
  XRD (X-ray powder diffraction pattern vs initial): a part of the sample showed crystal transition to crystal form II
  Purity: 99.1%
[2]; [8]
  Appearance: No change
  XRD (X-ray powder diffraction pattern vs initial): No change
  Purity: 99.1%

## COc1cc2c(cc1Cc1cccc(Cl)c1F)c(=O)c(C(=O)O)cn2[C@H](CO)C(C)C [Crystal form II, 6-(3-chloro-2-fluorobenzyl)-1-[(S)-1-hydroxymethyl-2-methylpropyl]-7-methoxy-4-oxo-1,4-dihydroquinoline-3-carboxylic acid]
[1]
  Endothermic peak Enthalpy: 53.542 J/g
  Endothermic peak Extrapolated onset temperature: 151.2 °C
[3]; [9]
  Solubility: 0.9 µg/mL (≈ 2.01 µM)
[3]; [10]
  Solubility: 5.8 µg/mL (≈ 12.9 µM)
[3]; [11]
  Solubility: 1.9 µg/mL (≈ 4.24 µM)
[3]; [12]
  Solubility: 0.8 µg/mL (≈ 1.79 µM)
[3]; [13]
  Solubility: 0.4 µg/mL (≈ 0.893 µM)
[3]; [14]
  Solubility: 6.3 µg/mL (≈ 14.1 µM)
[3]; [15]
  Solubility: 84 µg/mL (≈ 188 µM)
[3]; McIlvaine buffer, pH 6, aqueous buffer, thermodynamic from solid, McIlvaine buffer pH 6, shaken 14 hours
  solubility at 14 h: 1 µg/mL (≈ 2.23 µM)
[3]; [16]
  Solubility: 0.5 µg/mL (≈ 1.12 µM)
[3]; all test solutions of Table 4
  Solubility compared between crystal forms: higher solubility than crystal form III
[2]
  Stability under various preservation conditions (overall evaluation): extremely stable
[2]; condition 1: Initial
  Purity: 98.9%
[2]; [4]
  Appearance: No change
  XRD (X-ray powder diffraction pattern vs initial): No change
  Purity: 98.9%
[2]; [5]
  Appearance: No change
  XRD (X-ray powder diffraction pattern vs initial): No change
  Purity: 98.8%
[2]; [6]
  Appearance: No change
  XRD (X-ray powder diffraction pattern vs initial): No change
  Purity: 98.9%
[2]; [7]
  Appearance: No change
  XRD (X-ray powder diffraction pattern vs initial): No change
  Purity: 98.8%
[2]; [8]
  Appearance: No change
  XRD (X-ray powder diffraction pattern vs initial): No change
  Purity: 98.9%

## COc1cc2c(cc1Cc1cccc(Cl)c1F)c(=O)c(C(=O)O)cn2[C@H](CO)C(C)C [Crystal form III, 6-(3-chloro-2-fluorobenzyl)-1-[(S)-1-hydroxymethyl-2-methylpropyl]-7-methoxy-4-oxo-1,4-dihydroquinoline-3-carboxylic acid]
[1]
  Stability among three crystal forms judged from enthalpy and extrapolated onset temperature: most stable form
  Endothermic peak Enthalpy: 81.404 J/g
  Endothermic peak Extrapolated onset temperature: 162.1 °C
[3]; [9]
  Solubility: <0.1 µg/mL
[3]; [10]
  Solubility: 2.4 µg/mL (≈ 5.36 µM)
[3]; [11]
  Solubility: <0.1 µg/mL
[3]; [12]
  Solubility: <0.1 µg/mL
[3]; [13]
  Solubility: <0.1 µg/mL
[3]; McIlvaine buffer pH 6, shaken 14 hours
  Solubility: 0.7 µg/mL (≈ 1.56 µM)
[3]; [14]
  Solubility: 0.7 µg/mL (≈ 1.56 µM)
[3]; [15]
  Solubility: 23 µg/mL (≈ 51.4 µM)
[3]; [16]
  Solubility: <0.1 µg/mL
[2]
  Stability under various preservation conditions (overall evaluation): extremely stable
[2]; condition 1: Initial
  Purity: 98.71%
[2]; [4]
  Appearance: No change
  XRD (X-ray powder diffraction pattern vs initial): No change
  Purity: 98.68%
[2]; [5]
  Appearance: No change
  XRD (X-ray powder diffraction pattern vs initial): No change
  Purity: 98.69%
[2]; [6]
  Appearance: No change
  XRD (X-ray powder diffraction pattern vs initial): No change
  Purity: 98.67%
[2]; [7]
  Appearance: No change
  XRD (X-ray powder diffraction pattern vs initial): No change
  Purity: 98.66%
[2]; [17]
  Appearance: No change
  XRD (X-ray powder diffraction pattern vs initial): No change
  Purity: 98.65%
